Reference: ChEMBL document CHEMBL4196109, “Chemical Strategies for Half-Life Extension of Biopharmaceuticals: Lipidation and Its Alternatives” (ACS Med Chem Lett, 2018)

Legend:
Albumin = Albumin (Homo sapiens, UniProt P02768); experiment: Binding affinity to human albumin; format: ADME; conditions: isolated protein
Homo sapiens = experiment: Half life in sc dosed human; format: ADME, organism-based; conditions: in vivo

Albumin, sequence (P02768 whole entry): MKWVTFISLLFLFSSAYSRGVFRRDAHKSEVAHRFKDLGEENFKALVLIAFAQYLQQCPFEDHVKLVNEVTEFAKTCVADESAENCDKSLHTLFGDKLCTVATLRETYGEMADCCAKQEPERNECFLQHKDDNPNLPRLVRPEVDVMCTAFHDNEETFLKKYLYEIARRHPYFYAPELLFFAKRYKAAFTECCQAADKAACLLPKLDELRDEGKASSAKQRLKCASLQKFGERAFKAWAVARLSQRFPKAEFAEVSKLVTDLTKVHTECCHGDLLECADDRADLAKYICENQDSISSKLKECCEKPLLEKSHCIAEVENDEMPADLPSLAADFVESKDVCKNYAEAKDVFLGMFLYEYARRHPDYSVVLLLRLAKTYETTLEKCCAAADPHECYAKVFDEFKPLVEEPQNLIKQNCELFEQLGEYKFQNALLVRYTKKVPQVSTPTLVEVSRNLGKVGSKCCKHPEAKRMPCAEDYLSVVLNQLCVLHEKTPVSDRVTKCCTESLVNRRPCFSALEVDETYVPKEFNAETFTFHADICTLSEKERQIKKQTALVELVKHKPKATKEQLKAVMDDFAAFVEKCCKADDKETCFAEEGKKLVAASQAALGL

Row | Activity (Albumin) | t1/2 (Homo sapiens) | Compound
1 | > 99% | – | NC(=O)[C@H](CCCCNC(=O)CSC[C@H](N)C(=O)O)NC(=O)COCCOCCNC(=O)CC[C@H](NC(=O)CC[C@H](NC(=O)COCCOCCNC(=O)CCCS(=O)(=O)NC(=O)CCCCCCCCCCCCCCc1nn[nH]n1)C(=O)O)C(=O)O
2 | – | 1 weeks | SEMAGLUTIDE
